According to US20250339569A1, “CARBONIC ANHYDRASE IX LIGANDS” (priority 2021, published 2025):
Like-named read-outs stand apart in the source and are kept apart here. Starred links: 1 amine or outer side, 2 acyl side, 3 side chain; linkers in the order of their positions; H or OH if unused. Positions of bridges follow the written chain, without caps; N, C: chain ends. Non-standard residues stand in square brackets, D forms with d. Residues, ends and D or L forms follow the SMILES beside them. *: point of attachment. NH(CH2)3NH(O2Oc(DOTA)) = O=C(O)CN1CCN(CC(=O)O)CCN(CC(=O)NCCOCCOCC(=O)NCCCN*)CCN(CC(=O)O)CC1; Phe(3-NHCO(CH2)3SO2NH2) = N[C@@H](Cc1cccc(NC(=O)CCCS(N)(=O)=O)c1)C(=O)O; DOTA = O=C(O)CN1CCN(CC(=O)O)CCN(CC(=O)*)CCN(CC(=O)O)CC1; Propanoyl(3-SO2NH2) = NS(=O)(=O)CCC(=O)*; Phe(4-NH2) = Nc1ccc(C[C@H](N)C(=O)O)cc1; mXylylene = c1cc(C[*:1])cc(C[*:2])c1; X1 = O=C(CN1CCN([*:1])CC1)[*:2]; X31 = NS(=O)(=O)c1coc(C(=O)*)c1; Dap = NC[C@H](N)C(=O)O

How the values were obtained:
[1] = Plasma stability assay, mouse plasma; details: mouse plasma, 37°C, 24 h
[2] = target: T1, human carbonic anhydrase IX (hCAIX-Fc) (Homo sapiens, UniProt Q16790); experiment: Surface plasmon resonance assay with hCAIX-Fc; assay type: binding; details: 25° C.; for t1/2 category (activity): SPR dissociation half-life, hCAIX-Fc; for Kd: SPR, hCAIX-Fc captured, read-out: pKD category (activity) (converted)
T1 construct: purchased SinoBliological (Sino Biological) 10107-H02H

[3] = target: T2, CAIX-expressing human HT-29 colorectal cancer cells (Homo sapiens, UniProt Q16790); experiment: FACS binding assay (IC50 determination, competition with tracer 3BP-2776 or 3BP-4149); details: FACS binding assay, HT-29 cells, 4° C., 1 hour, read-out: pIC50 category (activity) (converted)
T2 construct: CAIX-expressing human HT-29 colorectal cancer cells; host or cells: HT-29 human colorectal cancer cells
In short: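 HT-29 cells in FACS buffer (PBS, 1% FCS) at 500.000 cells/ml were exposed to compounds competing with a labelled tracer, with biotinylated compounds detected by 1 μg/mL APC-streptavidin for 30 min on ice. APC/Cy5 median fluorescence was read by flow cytometry and IC50 derived by 4PL fit.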

[4] = competition with tracer 3BP-2776 (10 nM, biotin-labeled)

| Compound | % intact compound remaining (incubation time) [1] | t1/2 category (activity) [2] | Kd [2] | IC50 [3, 4] | IC50 ([3]; competition with tracer 3BP-4149 (3 nM, Cy5-labeled)) |
| --- | --- | --- | --- | --- | --- |
| CC(=O)N[C@H](C(=O)N[C@@H](CCCNC(=N)N)C(=O)N[C@H]1CSCc2cccc(c2)CSC[C@@H](C(N)=O)NC(=O)[C@H](CCC(=O)NCCCNC(=O)COCCOCCNC(=O)CN2CCN(CC(=O)O)CCN(CC(=O)O)CCN(CC(=O)O)CC2)NC(=O)[C@H](Cc2c[nH]c3ccccc23)NC(=O)[C@H]([C@@H](C)O)NC(=O)[C@H](CC(C)C)NC(=O)[C@H](Cc2c[nH]c3ccccc23)NC(=O)[C@H](CC(=O)O)NC(=O)[C@H]2CCCN2C(=O)[C@H](CCC(=O)O)NC1=O)C(C)C [3BP-3845] (Ac-VRCE[dP]DWLTWE(NH(CH2)3NH(O2Oc(DOTA)))C-NH2; linker 3-12 via mXylylene) | 76% | – | – | – | – |
| CC(C)C[C@@H]1NC(=O)[C@H](Cc2cccc(NC(=O)CCCS(N)(=O)=O)c2)NC(=O)[C@H](CC(=O)O)NC(=O)[C@H]2CCCN2C(=O)[C@H](CCC(=O)O)NC(=O)[C@@H]2CSCc3cccc(c3)CSC[C@@H](C(N)=O)NC(=O)[C@H](CNC(=O)C[C@H](NC(=O)CN3CCN(C(=O)CN4CCN(CC(=O)O)CCN(CC(=O)O)CCN(CC(=O)O)CC4)CC3)C(=O)N2)NC(=O)[C@H](Cc2c[nH]c3ccccc23)NC(=O)[C@H]([C@@H](C)O)NC1=O [3BP-4497] ({DOTA}-[X1]DCE[dP]D[Phe(3-NHCO(CH2)3SO2NH2)]LTW[Dap]C-NH2; lactam 2-11; linker 3-12 via mXylylene) | – | A (t1/2>15.0 minutes) | < 0.01 µM | 0.01 to 0.0794 µM | – |
| CC(C)C[C@@H]1NC(=O)[C@H](Cc2ccc(NC(=O)CCS(N)(=O)=O)cc2)NC(=O)[C@H](CC(=O)O)NC(=O)[C@H]2CCCN2C(=O)[C@H](CCC(=O)O)NC(=O)[C@@H]2CSCc3cccc(c3)CSC[C@@H](C(N)=O)NC(=O)[C@H](CNC(=O)C[C@H](NC(=O)CN3CCN(C(=O)CN4CCN(CC(=O)O)CCN(CC(=O)O)CCN(CC(=O)O)CC4)CC3)C(=O)N2)NC(=O)[C@H](Cc2c[nH]c3ccccc23)NC(=O)[C@H]([C@@H](C)O)NC1=O [3BP-4498] ({DOTA}-[X1]DCE[dP]D[Phe(4-NH2)](Propanoyl(3-SO2NH2))LTW[Dap]C-NH2; lactam 2-11; linker 3-12 via mXylylene) | – | A (t1/2>15.0 minutes) | < 0.01 µM | – | 0.01 to 0.0794 µM |
| CC(C)C[C@@H]1NC(=O)[C@H](Cc2ccc(NC(=O)CCS(N)(=O)=O)cc2)NC(=O)[C@H](CC(=O)O)NC(=O)[C@H]2CCCN2C(=O)[C@H](CCC(=O)O)NC(=O)[C@@H](NC(=O)[C@H](CCC(N)=O)NC(=O)CN2CCN(C(=O)CN3CCN(CC(=O)O)CCN(CC(=O)O)CCN(CC(=O)O)CC3)CC2)CSCc2cccc(c2)CSC[C@@H](C(N)=O)NC(=O)[C@H](CO)NC(=O)[C@H](Cc2c[nH]c3ccccc23)NC(=O)[C@H]([C@@H](C)O)NC1=O [3BP-4500] ({DOTA}-[X1]QCE[dP]D[Phe(4-NH2)](Propanoyl(3-SO2NH2))LTWSC-NH2; linker 3-12 via mXylylene) | – | A (t1/2>15.0 minutes) | < 0.01 µM | < 0.01 µM | – |
| CC(C)C[C@@H]1NC(=O)[C@H](Cc2cccc(NC(=O)CCCS(N)(=O)=O)c2)NC(=O)[C@H](CC(=O)O)NC(=O)[C@H]2CCCN2C(=O)[C@H](CCC(=O)O)NC(=O)[C@@H]2CSCc3cccc(c3)CSC[C@@H](C(N)=O)NC(=O)[C@H](CNC(=O)CC[C@H](NC(=O)CN3CCN(C(=O)CN4CCN(CC(=O)O)CCN(CC(=O)O)CCN(CC(=O)O)CC4)CC3)C(=O)N2)NC(=O)[C@H](Cc2c[nH]c3ccccc23)NC(=O)[C@H]([C@@H](C)O)NC1=O [3BP-4502] ({DOTA}-[X1]ECE[dP]D[Phe(3-NHCO(CH2)3SO2NH2)]LTW[Dap]C-NH2; lactam 2-11; linker 3-12 via mXylylene) | – | A (t1/2>15.0 minutes) | < 0.01 µM | < 0.01 µM | – |
| CC(C)C[C@@H]1NC(=O)[C@H](Cc2ccc(NC(=O)CCS(N)(=O)=O)cc2)NC(=O)[C@H](CC(=O)O)NC(=O)[C@H]2CCCN2C(=O)[C@H](CCC(=O)O)NC(=O)[C@@H]2CSCc3cccc(c3)CSC[C@@H](C(N)=O)NC(=O)[C@H](CNC(=O)CC[C@H](NC(=O)CN3CCN(C(=O)CN4CCN(CC(=O)O)CCN(CC(=O)O)CCN(CC(=O)O)CC4)CC3)C(=O)N2)NC(=O)[C@H](Cc2c[nH]c3ccccc23)NC(=O)[C@H]([C@@H](C)O)NC1=O [3BP-4504] ({DOTA}-[X1]ECE[dP]D[Phe(4-NH2)](Propanoyl(3-SO2NH2))LTW[Dap]C-NH2; lactam 2-11; linker 3-12 via mXylylene) | – | A (t1/2>15.0 minutes) | < 0.01 µM | < 0.01 µM | – |
| CC(C)C[C@@H]1NC(=O)[C@H](Cc2ccc(NC(=O)CCS(N)(=O)=O)cc2)NC(=O)[C@H](CC(=O)O)NC(=O)[C@H]2CCCN2C(=O)[C@H](CCC(=O)O)NC(=O)[C@@H]2CSCc3cccc(c3)CSC[C@@H](C(N)=O)NC(=O)[C@H](CNC(=O)CC[C@H](NC(=O)CN3CCN(CC(=O)O)CCN(CC(=O)O)CCN(CC(=O)O)CC3)C(=O)N2)NC(=O)[C@H](Cc2c[nH]c3ccccc23)NC(=O)[C@H]([C@@H](C)O)NC1=O [3BP-4505] ({DOTA}-ECE[dP]D[Phe(4-NH2)](Propanoyl(3-SO2NH2))LTW[Dap]C-NH2; lactam 1-10; linker 2-11 via mXylylene) | – | A (t1/2>15.0 minutes) | < 0.01 µM | < 0.01 µM | – |
| CC(C)C[C@@H]1NC(=O)[C@H](Cc2cccc(NC(=O)c3cccc(NS(N)(=O)=O)n3)c2)NC(=O)[C@H](CC(=O)O)NC(=O)[C@H]2CCCN2C(=O)[C@H](CCC(=O)O)NC(=O)[C@@H](NC(=O)[C@H](CCC(N)=O)NC(=O)CN2CCN(C(=O)CN3CCN(CC(=O)O)CCN(CC(=O)O)CCN(CC(=O)O)CC3)CC2)CSCc2cccc(c2)CSC[C@@H](C(N)=O)NC(=O)[C@H](CO)NC(=O)[C@H](Cc2c[nH]c3ccccc23)NC(=O)[C@H]([C@@H](C)O)NC1=O [3BP-4514] | – | B (t1/2 between 5.1 and 15.0 minutes) | < 0.01 µM | < 0.01 µM | – |
| CC(C)C[C@@H]1NC(=O)[C@H](Cc2cccc(NC(=O)CCCC(=O)NO)c2)NC(=O)[C@H](CC(=O)O)NC(=O)[C@H]2CCCN2C(=O)[C@H](CCC(=O)O)NC(=O)[C@@H](NC(=O)[C@H](CCC(N)=O)NC(=O)CN2CCN(C(=O)CN3CCN(CC(=O)O)CCN(CC(=O)O)CCN(CC(=O)O)CC3)CC2)CSCc2cccc(c2)CSC[C@@H](C(N)=O)NC(=O)[C@H](CO)NC(=O)[C@H](Cc2c[nH]c3ccccc23)NC(=O)[C@H]([C@@H](C)O)NC1=O [3BP-4515] | – | C (t1/2 between 2.1 and 5.0 minutes) | < 0.01 µM | 0.01 to 0.0794 µM | – |
| CC(C)C[C@@H]1NC(=O)[C@H](Cc2cccc(NC(=O)c3cc(S(N)(=O)=O)co3)c2)NC(=O)[C@H](CC(=O)O)NC(=O)[C@H]2CCCN2C(=O)[C@H](CCC(=O)O)NC(=O)[C@@H](NC(=O)[C@H](CCC(N)=O)NC(=O)CN2CCN(C(=O)CN3CCN(CC(=O)O)CCN(CC(=O)O)CCN(CC(=O)O)CC3)CC2)CSCc2cccc(c2)CSC[C@@H](C(N)=O)NC(=O)[C@H](CO)NC(=O)[C@H](Cc2c[nH]c3ccccc23)NC(=O)[C@H]([C@@H](C)O)NC1=O [3BP-4788] | – | A (t1/2>15.0 minutes) | < 0.01 µM | < 0.01 µM | – |
| CC(C)C[C@@H]1NC(=O)[C@H](Cc2cccc(NC(=O)c3cc(S(N)(=O)=O)c[nH]3)c2)NC(=O)[C@H](CC(=O)O)NC(=O)[C@H]2CCCN2C(=O)[C@H](CCC(=O)O)NC(=O)[C@@H](NC(=O)[C@H](CCC(N)=O)NC(=O)CN2CCN(C(=O)CN3CCN(CC(=O)O)CCN(CC(=O)O)CCN(CC(=O)O)CC3)CC2)CSCc2cccc(c2)CSC[C@@H](C(N)=O)NC(=O)[C@H](CO)NC(=O)[C@H](Cc2c[nH]c3ccccc23)NC(=O)[C@H]([C@@H](C)O)NC1=O [3BP-4789] | – | C (t1/2 between 2.1 and 5.0 minutes) | 0.01 to 0.0794 µM | 0.01 to 0.0794 µM | – |
| CC(C)C[C@@H]1NC(=O)[C@H](Cc2cccc(NC(=O)Cn3cc(S(N)(=O)=O)cn3)c2)NC(=O)[C@H](CC(=O)O)NC(=O)[C@H]2CCCN2C(=O)[C@H](CCC(=O)O)NC(=O)[C@@H](NC(=O)[C@H](CCC(N)=O)NC(=O)CN2CCN(C(=O)CN3CCN(CC(=O)O)CCN(CC(=O)O)CCN(CC(=O)O)CC3)CC2)CSCc2cccc(c2)CSC[C@@H](C(N)=O)NC(=O)[C@H](CO)NC(=O)[C@H](Cc2c[nH]c3ccccc23)NC(=O)[C@H]([C@@H](C)O)NC1=O [3BP-4790] | – | A (t1/2>15.0 minutes) | < 0.01 µM | < 0.01 µM | – |
| CC(C)C[C@@H]1NC(=O)[C@H](Cc2ccc(NC(=O)c3cc(S(N)(=O)=O)co3)cc2)NC(=O)[C@H](CC(=O)O)NC(=O)[C@H]2CCCN2C(=O)[C@H](CCC(=O)O)NC(=O)[C@@H](NC(=O)[C@H](CCC(N)=O)NC(=O)CN2CCN(C(=O)CN3CCN(CC(=O)O)CCN(CC(=O)O)CCN(CC(=O)O)CC3)CC2)CSCc2cccc(c2)CSC[C@@H](C(N)=O)NC(=O)[C@H](CO)NC(=O)[C@H](Cc2c[nH]c3ccccc23)NC(=O)[C@H]([C@@H](C)O)NC1=O [3BP-4813] ({DOTA}-[X1]QCE[dP]D[Phe(4-NH2)](X31)LTWSC-NH2; linker 3-12 via mXylylene) | – | C (t1/2 between 2.1 and 5.0 minutes) | 0.01 to 0.0794 µM | 0.01 to 0.0794 µM | – |
